The record followed here is ChEMBL document CHEMBL1147074, “Reevaluation of telomerase inhibition by quadruplex ligands and their mechanisms of action” (Proc Natl Acad Sci U S A, 2007).

Active and inactive are the calls of the source. No cut-off for these calls is given here.

In test [1] the target is T1, Telomerase reverse transcriptase (Homo sapiens, UniProt O14746). Briefly: Decrease in telomerase processivity assessed as decrease in telomerase elongation in presence of Telo3R primer by primer extension assay.
Test [2] concerns the target T1, Telomerase reverse transcriptase. Briefly: Inhibition of human telomerase expressed in HEK293T cells treated before telomerase elongation by telomeric repeat amplification protocol assay. As to conditions: hek-293t. Type of test: cell-based.
Test [3] shares this target. Briefly: Inhibition of human telomerase expressed in HEK293T cells in presence of primer (T2AG3)3 by primer extension assay. Type of test: cell-based. As to conditions: hek-293t.
For test [4] the target is unchanged. In words: Inhibition of human telomerase expressed in HEK293T cells in presence of primer TS by primer extension assay. As to conditions: hek-293t. Type of test: cell-based.
For test [5] the target is unchanged. In words: Inhibition of human telomerase expressed in HEK293T cells in presence of primer (T2AG3)4 by primer extension assay. Type of test: cell-based. As to conditions: hek-293t.

T1 sequence (O14746 whole entry): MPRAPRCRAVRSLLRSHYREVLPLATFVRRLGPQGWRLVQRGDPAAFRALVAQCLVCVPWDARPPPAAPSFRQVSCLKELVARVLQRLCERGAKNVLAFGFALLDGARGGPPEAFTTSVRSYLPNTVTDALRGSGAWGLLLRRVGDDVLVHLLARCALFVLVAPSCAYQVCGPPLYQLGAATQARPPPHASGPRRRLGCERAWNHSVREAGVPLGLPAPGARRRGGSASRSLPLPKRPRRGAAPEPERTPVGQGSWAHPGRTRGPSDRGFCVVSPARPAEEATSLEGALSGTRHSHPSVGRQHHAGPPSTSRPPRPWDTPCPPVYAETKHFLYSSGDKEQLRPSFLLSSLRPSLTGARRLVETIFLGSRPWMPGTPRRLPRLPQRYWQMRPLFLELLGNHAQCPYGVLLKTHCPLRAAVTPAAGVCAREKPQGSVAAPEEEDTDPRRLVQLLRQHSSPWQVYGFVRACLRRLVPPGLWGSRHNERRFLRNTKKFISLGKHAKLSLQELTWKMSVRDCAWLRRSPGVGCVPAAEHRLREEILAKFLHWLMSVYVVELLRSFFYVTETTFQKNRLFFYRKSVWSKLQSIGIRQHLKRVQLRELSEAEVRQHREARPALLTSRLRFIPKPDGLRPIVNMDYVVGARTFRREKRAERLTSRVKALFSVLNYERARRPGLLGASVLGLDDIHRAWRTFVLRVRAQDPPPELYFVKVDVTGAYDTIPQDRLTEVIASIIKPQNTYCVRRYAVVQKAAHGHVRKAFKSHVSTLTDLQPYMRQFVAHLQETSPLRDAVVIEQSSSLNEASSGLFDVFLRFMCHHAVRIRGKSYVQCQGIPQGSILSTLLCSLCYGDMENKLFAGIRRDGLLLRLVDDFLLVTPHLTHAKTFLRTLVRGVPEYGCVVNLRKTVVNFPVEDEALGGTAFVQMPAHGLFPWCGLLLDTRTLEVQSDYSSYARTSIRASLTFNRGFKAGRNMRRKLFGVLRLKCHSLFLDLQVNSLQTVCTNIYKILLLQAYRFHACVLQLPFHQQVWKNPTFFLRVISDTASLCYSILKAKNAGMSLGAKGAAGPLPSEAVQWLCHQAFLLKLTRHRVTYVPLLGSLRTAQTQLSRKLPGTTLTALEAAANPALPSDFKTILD

With `C[n+]1ccc(-c2c3nc(c(-c4cc[n+](C)cc4)c4ccc([nH]4)c(-c4cc[n+](C)cc4)c4ccc([nH]4)c(-c4cc[n+](C)cc4)c4nc2C=C4)C=C3)cc1`, the result in test [1] was inactive.

The term IC50 denotes the concentration that gives 50% inhibition. `C[n+]1ccc(-c2c3nc(c(-c4cc[n+](C)cc4)c4ccc([nH]4)c(-c4cc[n+](C)cc4)c4nc(c(-c5cc[n+](C)cc5)c5ccc2[nH]5)C=C4)C=C3)cc1` [TMPYP4]: the IC50 came to 550 nM in test [2] and 710 nM in test [3].

Turning to `C[n+]1cc(NC(=O)c2ccc3ccc4ccc(C(=O)Nc5cc6ccccc6[n+](C)c5)nc4c3n2)cc2ccccc21`, the outcome in test [1] was Active.

`CN(C)c1ccc(Nc2c3ccc(NC(=O)CCN4CCCC4)cc3nc3cc(NC(=O)CCN4CCCC4)ccc23)cc1`: the 50% inhibitory concentration (IC50) was found to be 45 nM in test [2] and 830 nM in test [3]. The outcome in test [1] was inactive.

On to `Cc1oc2nc1-c1nc(co1)-c1nc(co1)-c1nc(co1)-c1nc(co1)-c1nc(co1)C1=NC(CS1)c1nc-2c(C)o1` (stereo not drawn) [TELOMESTATIN], for which the IC50 in test [2] was 0.64 nM; in test [3], 900 nM; in test [4], 1150 nM; in test [5] it was 58 nM. In addition, the result in test [1] was inactive.

For `C[n+]1cc(NC(=O)c2cccc(C(=O)Nc3cc4ccccc4[n+](C)c3)n2)cc2ccccc21`, in test [1], the outcome was Active.
